Data set [1] concerns HBV. In words: Antiviral activity on HBV replication in 2.2.15 cells (blot hybridization of virion DNA and replicative intermediates). The data set is classed as cell-based. Conditions: for EC90: Hepatitis B virus, 90% inhibition of viral replication. How it is done: A common method of evaluating the success of antiviral and anticancer agents is by measuring the efficacy and toxicity in tissue culture systems. The antiviral activity of the macromolecular prodrug made according to the teachings in Example 40 was evaluated in […], a common assay for evaluating efficacy and toxicity of agent for Hepatitis B, as described in detail in Example 42.
(§1) The antiviral activities and cytotoxicity of a macromolecular prodrug of Dextran-araA made according to the teachings in Example 40 and the parent nucleoside analog araA were evaluated using […] (obtained from transfection of the Hep G2 human hepatoblastoma cell line with HBV) as described by Korba and Gerin (Korba B E, Gerin J L., Antiviral Research 1992; 19:55-70.) It is standard system widely used to compare the safety and efficacy of drugs for the treatment of HBV. The data for β-L-FTC,a nucleoside analog with pharmacological properties similar to Lamivudine (3TC), in the same system are shown for comparison. Lamivudine is a recently developed nucleoside analog that has been approved by the U.S. FDA for the treatment of HIV and has shown promise in extensive clinical trials against HBV
Briefly, the test compounds were added to confluent cultures of 2.2.15 cells every 24 hours for nine consecutive days in fresh culture media (RPMI 1640 with 2% fetal bovine serum, Gibco Inc., Grand Island N.Y. U.S.A.). The amount of extracellular HBV virion DNA and intracellular HBV replication intermediates were determined using quantitative blot hybridization analyses (dot, Southern and northern blots, respectively, Korba B E, Gerin J L., Antiviral Research 1992; 19:55-70; Korba B E, Milman., Antiviral Research 1991; 15:217-228).
Efficacy was determined by the concentrations of agent giving 90% inhibition of viral replication (EC90) as measured in changes of HBV virion DNA and replicative intermediates. Cytotoxicity caused by the agents was measured by the uptake of neutral red dye. The cytotoxic concentration (CC50), was considered to be the concentration at which 50% of the cells took up due the dye. The selectivity index (SI, CC50 /EC90) is measure of drug toxicity in relation to drug efficacy.

Data set [2] in a line: Cytotoxicity in 2.2.15 cells (uptake of neutral red dye). Conditions: human, nine daily additions. The data set is classed as cell-based. How it is done: as §1
Briefly, the test compounds were added to confluent cultures of 2.2.15 cells every 24 hours for nine consecutive days in fresh culture media (RPMI 1640 with 2% fetal bovine serum, Gibco Inc., Grand Island N.Y. U.S.A.). The amount of extracellular HBV virion DNA and intracellular HBV replication intermediates were determined using quantitative blot hybridization analyses (dot, Southern and northern blots, respectively, Korba B E, Gerin J L., Antiviral Research 1992; 19:55-70; Korba B E, Milman., Antiviral Research 1991; 15:217-228). […]

For data set [3] the following is noted: background art; cited from earlier work.
The subject of a further data set is 2.2.15 cells. Conditions: β-L-FTC; Schinazi et al. Antimicrob. Agent Chem (1994) 38, 2172; cited from earlier work.
Data set [4] deals with HBV. Conditions: β-L-FTC, Schinazi et al. 1994, cited from earlier work.
Setting [5] is: Intracellular RI DNA (values in parentheses).

Where two headings read alike, the source gives them in different places.

A word on the EC90: it is the point of the concentration-response curve where the effect stands at 90%. Usually CC50 stands for the concentration at which the toxic effect on the cells reaches its halfway point. As for `Nc1ncnc2c1ncn2[C@@H]1O[C@H](CO)[C@@H](O)[C@@H]1O` [araA], the “SI (CC50/EC90)” value is given as 11 in the data set with HBV [1] (Extracellular DNA) and 7.5 with HBV [1] (setting [5]). Further, the EC90 with HBV [1] (Extracellular DNA (HBV virion)) amounted to 17 ± 1.9 µM; in the data set with HBV [1] (setting [5]) it was 25 ± 2.1 µM. Moreover, the “SI (rounded)” value in the data set on HBV [1] (text statement on the SI of Table 3) is listed as “about 10”. The compound further gave a CC50 in data set [2] of 188 ± 20 µM.

For `O=c1[nH]cnc2c1ncn2[C@@H]1O[C@H](CO)[C@@H](O)[C@@H]1O` [arahypoxanthine], in data set [3], the antiviral effect entry is reported as “little antiviral effect”.

On to `Nc1nc(=O)n([C@@H]2CS[C@H](CO)O2)cc1F` [β-L-FTC], for which the CC50 in the data set with 2.2.15 cells was 746 µM. Further, in the data set on HBV [4] (Extracellular DNA), the EC90 was 1.1 µM and the “SI (CC50/EC90)” value is reported as 678. In addition, in the data set on HBV [4] (Intracellular RI DNA), the EC90 is 0.39 µM and the “SI (CC50/EC90)” value is 1913.
